Patent US8022038B2, “Composition for acceleration of type I collagen production” (Fancl Corporation, priority 2005, dated 2011)
Non-standard residues stand in square brackets, D forms with d. No end group written: not given here. Hyp = O=C(O)[C@@H]1C[C@@H](O)CN1

Tested on: three-dimensional human skin model (type I collagen production)
Test: Type I collagen production in three-dimensional human skin model (TESTSKIN LSE-high), Western blotting with imaging analysis
Format: cell-based
Experimental: Three-dimensional human skin models are widely used in safety evaluation and effectiveness evaluation as a simulated model of human skin. In this test, TESTSKIN (LSE-high) (Toyobo Co., Ltd.) was used as a three-dimensional human skin model.
A culture medium was added to the outer well of TESTSKIN (LSE-high) and cultured for 24 hours. Thereafter, the culture solution was changed and each agent was added by 100 μl onto the tissues in the assay ring, after which the medium was cultured for 36 hours. Thereafter, the tissues were collected and a tissue extraction solution (50 mM Tris-HCl (pH 7.5), 0.5% (Octylphenoxy) polyethoxyethanol (Sigma-Aldrich Corp.)) was added, and then the mixture was homogenized using a homogenizer made of fluorocarbon resin. The homogenized mixture was centrifuged for 30 minutes at 10,000×G to remove tissue fragments, and then dialyzed overnight in distilled water at 4° C. Thereafter, the dialyzed mixture was freeze-dried to remove water. A tissue extraction solution was added to obtain a x20 concentrate, and this concentrate was used in Western blotting as a three-dimensional skin model extract sample.
Using a three-dimensional human skin model extract sample, 10 μg of protein was applied per lane, after which the sample was separated via SDS-PAGE and the result was transferred onto nitrocellulose membranes. The transferred nitrocellulose membranes were soaked in a blocking solution (solution prepared by dissolving skim milk in a PBS containing 0.1% polyoxyethylene (20) sorbitan monolaurate to achieve a concentration of 5%) and blocked for one whole day at 4° C. The blocked membranes were washed with a washing solution (PBS containing 0.1% polyoxyethylene (20) sorbitan monolaurate) and then soaked in a primary antibody (polyclonal antibody of type I collagen (Rockland Inc.) adjusted to 500 ng/ml using a washing solution) to cause reaction for 1 hour at room temperature. The reacted membranes were washed and then soaked in a secondary antibody (horseradish peroxidase labeled anti-rabbit immunoglobulin G adjusted to 250 ng/ml using a washing solution) to cause reaction for 1 hour at room temperature. The reacted membranes were washed and then detection was performed using an ECL plus Western blotting detection reagent (Amersham Biosciences Inc.). The detected band was also scanned into an image scanner (Amersham Biosciences Inc.) and analyzed using image master software (Amersham Biosciences Inc.) for conversion to numerical values.

[1] = 10 μM, 36 h treatment, Example 1, FIGS. 1 and 2
[2] = 10 μM alone, Example 3, FIGS. 9 and 10
[3] = 10 μM, Example 3, FIGS. 7 and 8
[4] = 30 μM, Example 3, FIGS. 7 and 8

Compound	type I collagen production compared to the level in the untreated control [1] [times]	type I collagen production compared to the level in the untreated control [2] [times]	type I collagen production compared to the level in the untreated control [3] [times]	type I collagen production compared to the level in the untreated control [4] [times]	also measured
COc1cc(C2Oc3cc([C@H]4Oc5cc(O)cc(O)c5C(=O)[C@@H]4O)ccc3OC2CO)ccc1O (stereo partly drawn) [silybin]	3.2				type I collagen production compared to the level in the untreated control (5 μM alone, Example 3, FIGS. 9 and 10): 1.95 times; type I collagen production compared to the level in the untreated control (5 μM used alone, Example 2, FIGS. 5 and 6): 1.85 times
COc1cc([C@@H]2Oc3c(O)cc([C@H]4Oc5cc(O)cc(O)c5C(=O)[C@@H]4O)cc3[C@H]2CO)ccc1O [silychristin]	0.95				
Lys-Thr-Thr-Lys-Ser (KTTKS) [pentapeptide derived from an α1 collagen decomposition product, synthesized]		1.80	1.80	2.45	
Gly-Glu-Pro-Arg (GEPR) [peptide derived from an immunoglobulin G decomposition product, synthesized]		2.10	2.15	3.55	
Gly-His-Lys		1.75	1.75	2.70	
Gly-Pro-[Hyp]					type I collagen production compared to the level in the untreated control (5 μM, Example 2, FIGS. 3 and 4): 1.05 times; type I collagen production compared to the level in the untreated control (10 μM, Example 2, FIGS. 3 and 4): 1.15 times; type I collagen production compared to the level in the untreated control (30 μM used alone, Example 2, FIGS. 5 and 6): 1.25 times; type I collagen production compared to the level in the untreated control (30 μM, Example 2, FIGS. 3 and 4): 1.25 times
COc1cc([C@@H]2[C@H]3CO[C@@]4(O)C(=O)[C@@H]2C=C([C@H]2Oc5cc(O)cc(O)c5C(=O)[C@@H]2O)[C@@H]34)ccc1O [silydianin]	0.9				
